In patent US20050152906A1, “Specific human antibodies” (priority 2003, published 2005):
Ends that are not written are not given here. * marks the point of attachment. SO3H = O=S(=O)(O)*

Assays:
[1] = biological target: PSGL-1 (P-Selectin Glycoprotein Ligand-1) (human) (UniProt Q14242); assay: cell-based or functional assay
[2] = test system: Y1-scFv binding to platelets; assay: Y1-scFv platelet binding assay, inhibition by synthetic GPIb peptides
Protocol: Briefly, peptides were synthesized by solid phase methodology using an ABIMED AMS-422 multiple peptide synthesizer, and as required, tyrosine sulfate was incorporated using FMOC-Try sodium salt. Synthetic peptides were purified using a Lichrosorb RP-18 column. For the Y1-scFv platelet binding assay, a mixture of synthetic peptide (2.5, 25 or 200 μM) and Y1-scFv (10 μg) was incubated with […]. Following washing, platelets were incubated with R-phycoerythrin labeled-anti scFv, washed and analyzed by FACS.

primary B-CLL cells [3] = assay: CDC against mononuclear cells from B-CLL patients; assay type: cell-based, human; conditions: presence and absence of 25% of the patients' plasma
Protocol: For CDC experiments, mononuclear cells from B-CLL patients were separated on FICOLL®. Cells were incubated with or without Y1-IgG or control antibodies for 24 hours in the presence or absence of the patient's plasma. Apoptotic cells were then stained with Annexin-PI and analyzed by FACS.
Mononuclear cells from B-CLL patients were incubated with Y1-IgG, Rituximab or Campath® in the presence and absence of 25% of the patients' plasma. […] Neither Rituximab nor Y1-IgG induced cytotoxicity via complement fixation.

Storage stability = assay type: physicochemical; conditions: under argon at −20° C.
Protocol: After reaction with acetic acid, the resulting free base was isolated as its solid acetate salt followed by lyophilization. M-DNR-Ac is stable for at least 12 months under argon at −20° C.
The methanolic solution was evaporated to dryness under reduced pressure at 25° C., resulting in a red oily residue, which was dissolved in dry methanol. To this solution, dry ether was added and the precipitated red solid isolated by centrifugation. […] (6-Maleimidocaproyl)hydrazone of Morphlinyldaunorubicin acetate is stable for at least 4 months under argon at −20° C.

primary AML cells = assay: Semisolid clonogenic assay, primary AML patient samples; assay type: cell-based, human
Protocol: 3.2 Cytotoxicity of Y1-IgGM-DNR Derivative (FIG. 12-14): The specific cytotoxic effect of Y1-drug conjugates was assessed in semisolid (METHOCULT™; StemCell Technologies Inc., Vancouver BC, Canada) clonogenic assays. Cells (CD34+ stem cells from cord blood or primary AML patient samples) were incubated with free or conjugated drugs at concentrations of up to 10^−6M for 1 hour at 37° C. The cells were washed, seeded in METHOCULT™ and grown for 10-12 days, after which colonies were counted. Bovine (b)-IgG-M-DNR was used as a non-specific conjugate control.

primary B-CLL cells [4] = assay: Y1-IgG-mediated ADCC by PBMC effector cells against primary B-CLL cells; assay type: cell-based
Protocol: For ADCC experiments, mononuclear effector and target cells were separated on FICOLL®. Target cells were then labeled with PKH26, which stably incorporates a fluorescent dye within the lipid regions of the cell membranes. Cells were then washed and incubated with effector cells at various Effector:Target (E:T) ratios, in the absence or presence of different concentrations of Y1-IgG or control antibodies for 24 hours. Dead cells were stained by TOPRO®(Molecular Probes, Inc., Eugene, Oreg.): and analyzed by FACS on gated target cells.
To determine if Y1-IgG mediates ADCC in primary B-CLL, B-CLL cells from different patients were co-incubated for 24 hours with PBMC effector cells at different effector/target cell ratios. […] Variation may be attributed to the effector cell samples obtained from different healthy donors, as well as to differences among the B-CLL samples.

[5] = substitution mutant peptides based on DLY^SDYYPE (FIG. 17B), concentration not given

Sequence of UniProt Q14242 (Q14242 42-412): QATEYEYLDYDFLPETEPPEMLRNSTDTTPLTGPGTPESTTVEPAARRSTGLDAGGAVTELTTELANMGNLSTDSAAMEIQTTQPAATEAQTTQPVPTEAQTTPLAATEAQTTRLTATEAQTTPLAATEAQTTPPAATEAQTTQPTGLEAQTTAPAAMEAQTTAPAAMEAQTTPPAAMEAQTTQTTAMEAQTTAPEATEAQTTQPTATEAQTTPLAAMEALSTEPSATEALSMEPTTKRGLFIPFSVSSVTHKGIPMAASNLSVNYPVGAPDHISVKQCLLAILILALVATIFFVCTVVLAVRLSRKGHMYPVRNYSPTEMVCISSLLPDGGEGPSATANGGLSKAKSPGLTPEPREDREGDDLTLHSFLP

**Q.** For mouse anti-PSGL-1 antibody KPL1, which inhibition of ML2 cell rolling on rh-P-Selectin (1 µg/ml) at all shear forces [1] is on record?
**A.** Its inhibition of ML2 cell rolling on rh-P-Selectin (1 µg/ml) at all shear forces is 100%.

**Q.** Which “inhibition of Y1-scFv binding to platelets” value (“inhibition of Y1-scFv binding” for short) [2, 5] does the source give for “DLY^SAYYPE (DLY(SO3H)AYYPE) [Asp-277 replaced by Ala]” here?
**A.** Its value is “substantially incapable of inhibiting”.

**Q.** With “DLY^SDFYPE (DLY(SO3H)DFYPE) [substitution mutant peptide, amino acids 278 to 280]” as the compound, how does the “inhibition of Y1-scFv binding” value [2, 5] read?
**A.** The value was “inhibited Y1-scFv binding to platelets”.

**Q.** For “DLY^SDYYAE (DLY(SO3H)DYYAE) [substitution mutant peptide, amino acids 278 to 280]”, which “inhibition of Y1-scFv binding” value [2, 5] is on record?
**A.** Its value is “inhibited Y1-scFv binding to platelets”.

**Q.** With “Campath®: commercially available humanized antibody which binds CD52” as the compound, how does the “cytotoxicity via CDC” value (primary B-CLL cells [3]) read?
**A.** Its value is “mediated cytotoxicity of primary B-CLL cells via CDC”.

**Q.** With “DLY^SDYYPE (DLY(SO3H)DYYPE) [sulfated at the first tyrosine]” as the compound, how does the “inhibition of Y1-scFv binding” value ([2]; peptide 25 μM) read?
**A.** Its value is “effectively inhibited”.

**Q.** With “DLY^SNYYPE (DLY(SO3H)NYYPE) [Asp-277 replaced by Asn]” as the compound, how does the “inhibition of Y1-scFv binding” value [2, 5] read?
**A.** Its value is “substantially incapable of inhibiting”.

**Q.** For “DLY^SDYYPA (DLY(SO3H)DYYPA) [substitution mutant peptide, amino acids 278 to 280]”, which “inhibition of Y1-scFv binding” value [2, 5] is on record?
**A.** The value was “inhibited Y1-scFv binding to platelets”.

**Q.** With `CC(=O)O.COc1cccc2c1C(=O)c1c(O)c3c(c(O)c1C2=O)C[C@@](O)(C(C)=NNC(=O)CCCCCN1C(=O)C=CC1=O)C[C@@H]3O[C@H]1C[C@H](N2CCOCC2)[C@H](O)[C@H](C)O1` [(6-Maleimidocaproyl)hydrazone of Morphlinyldaunorubicin acetate] as the compound, how does the “stable for” value (Storage stability) read?
**A.** The value was “at least 4 months”.

**Q.** What does the source list for `COc1cccc2c1C(=O)c1c(O)c3c(c(O)c1C2=O)C[C@@](O)(C(C)=O)C[C@@H]3O[C@H]1C[C@H](N2CCOCC2)[C@H](O)[C@H](C)O1` [M-DNR, 3′-Deamino-3′-(4-morpholinyl)daunorubicin]?
**A.** colony formation relative to control, AML-M4 cells (primary AML cells; 1 μM): did not give rise to colonies; colony formation relative to control, AML-M5 cells (primary AML cells; 1 μM): did not give rise to colonies; viability of primary AML cells relative to the control (primary AML cells; AML sample M7 megakaryocytic leukemia, 0.1 μM): 80%

**Q.** For “DLY^SDYY^SPE (DLY(SO3H)DYY(SO3H)PE) [sulfated at the first and third tyrosines]”, which “inhibition of Y1-scFv binding” value ([2]; peptide 25 μM) is on record?
**A.** The value was “effectively inhibited”.

**Q.** With “DLY^SEYYPE (DLY(SO3H)EYYPE) [Asp-277 replaced by Glu]” as the compound, how does the “inhibition of Y1-scFv binding” value [2, 5] read?
**A.** The value was “substantially incapable of inhibiting”.

**Q.** For DLYDYYPE [non-sulfated control peptide], which “inhibition of Y1-scFv binding” value ([2]; peptide 200 μM) is on record?
**A.** The value was “no effect”.

**Q.** Which “inhibition of Y1-scFv binding” value ([2]; peptide 200 μM) does the source give for “DLYDY^SY^SPE (DLYDY(SO3H)Y(SO3H)PE) [sulfated at the second and third tyrosines]” here?
**A.** The value was “no effect”.

**Q.** Which “inhibition of Y1-scFv binding” value ([2]; peptide 25 μM) does the source give for “DLY^SDY^SYPE (DLY(SO3H)DY(SO3H)YPE) [sulfated at the first and second tyrosines]” here?
**A.** The value was “effectively inhibited”.

**Q.** With “DLY^SDY^SY^SPE (DLY(SO3H)DY(SO3H)Y(SO3H)PE) [GPIb-based peptide comprising 3 sulfated tyrosines]” as the compound, how does the “inhibition of Y1-scFv binding” value ([2]; peptide 25 μM) read?
**A.** Its value is “effectively inhibited”.

**Q.** Which “stable for” value (Storage stability) does the source give for `CC(=O)O.COc1cccc2c1C(=O)c1c(O)c3c(c(O)c1C2=O)C[C@@](O)(C(C)=O)C[C@@H]3O[C@H]1C[C@H](N2CCOCC2)[C@H](O)[C@H](C)O1` [M-DNR-Ac, 3′-Deamino-3′-(4-morpholinyl)daunorubicin acetate] here?
**A.** Its value is “at least 12 months”.

**Q.** For “Rituximab: commercially available humanized antibody which binds CD20”, which “cytotoxicity via CDC” value (primary B-CLL cells [3]) is on record?
**A.** The value was “Neither”.

**Q.** What about the “concentration at which saturation of receptor molecules on the target cells was achieved” value (primary B-CLL cells [4]) of the same compound?
**A.** Its value is “not by the same concentration”.

**Q.** For “DLY^SDAYPE (DLY(SO3H)DAYPE) [substitution mutant peptide, amino acids 278 to 280]”, which “inhibition of Y1-scFv binding” value [2, 5] is on record?
**A.** Its value is “inhibited Y1-scFv binding to platelets”.

**Q.** With “DAY^SDYYPE (DAY(SO3H)DYYPE) [Leu-275 replaced by Ala]” as the compound, how does the “inhibition of Y1-scFv binding” value [2, 5] read?
**A.** The value was “inhibited Y1-scFv binding to platelets”.

**Q.** For “DLYDYY^SPE (DLYDYYPE; not fully specified (residue 6)) [sulfated at the third tyrosine]”, which “inhibition of Y1-scFv binding” value ([2]; peptide 200 μM) is on record?
**A.** The value was “no effect”.

**Q.** With “DLEDYYPE [sulfated Tyr-276 replaced with Glu]” as the compound, how does the “inhibition of Y1-scFv binding” value [2, 5] read?
**A.** The value was “no substantial inhibition”.
